Reference: EP1914236A1 (Ortho-McNeil Pharmaceutical, Inc., priority 2002, dated 2003)
Read-outs that look alike come from different tables or passages of the source.

Key:
[1] = molecular target: T1, human B2 bradykinin receptors (Homo sapiens, UniProt P30411); assay: Bradykinin B2 (BK2) Receptor Binding Assay
T1 construct: purchased Receptor Biology, Inc. (Baltimore, MD); host or cells: CHO-K1 cells transfected with the human B2 receptor (membranes)
T1 sequence (P30411 1-391): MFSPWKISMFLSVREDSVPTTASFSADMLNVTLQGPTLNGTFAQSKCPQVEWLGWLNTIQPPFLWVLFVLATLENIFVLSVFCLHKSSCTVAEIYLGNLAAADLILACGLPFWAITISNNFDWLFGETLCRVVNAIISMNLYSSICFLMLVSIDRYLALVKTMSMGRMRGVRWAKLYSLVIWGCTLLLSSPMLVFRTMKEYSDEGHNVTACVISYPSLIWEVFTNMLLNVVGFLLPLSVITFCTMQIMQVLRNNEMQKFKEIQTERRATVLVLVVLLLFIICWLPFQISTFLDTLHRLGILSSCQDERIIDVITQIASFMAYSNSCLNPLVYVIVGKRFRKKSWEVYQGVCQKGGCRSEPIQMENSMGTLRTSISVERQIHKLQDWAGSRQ
Outline: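 Membranes came from CHO-K1 cells expressing human B2 receptors; bound radioligand was collected by filtration and washed with cold 10 mM HEPES, pH 7.5. Single concentrations gave % inhibition of specific binding, and concentration ranges gave Ki values.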

[2] = molecular target: T2, CHO-hB2 cell membranes (Homo sapiens, UniProt P30411); assay: [35S]GTPγS Binding Assay in CHO-hB2 Cell Membranes; format: biochemical
T2 construct: purchased Receptor Biology, Inc. (Baltimore, MD); host or cells: CHO-hB2 cells (membranes)
T2 sequence (P30411 1-391): T1 sequence (P30411 1-391)
Experimental: CHO-hB2 cell membranes were purchased from Receptor Biology, Inc. (Baltimore,MD). 10 mg/mL of membrane protein was suspended in 10 mM TRIS-HC pH 7.2, 2 mM EDTA, 10% sucrose.
Membranes were added into 15 mL ice cold binding assay buffer. The assay buffer contained 50 mM HEPES, pH 7.6, 5 mM MgCl2, 100 mM NaCl, 1 mM DTT and 1 mM EDTA. The membrane suspension was homogenized twice with a Polytron and centrifuged at 3000 rpm for 10 min. The supernatant was then centrifuged at 18,000 rpm for 20 min. The pellet was saved in a tube and resuspended.
The pellet membranes (40 µg/mL) were preincubated with SPA (scintillation proximity assay) beads (20 mg/mL) at 25C° for 45 min in the assay buffer. The SPA beads (5 mg/mL) coupled with membranes (10 µg/mL) were then incubated with 0.5 nM [^35S]GTPγS in the same HEPES buffer containing 50 µM GDP in total volume of 200 µL. Bradykinin was used to stimulate [^35S]GTPγS binding. Varying concentrations of drugs were incubated with bradykinin to inhibit bradykinin-stimulated [^35S]GTPγS binding. The basal binding was tested in the absence of bradykinin and no specific binding was tested in the present 10 µM unlabeled GTPγS. The radioactivity was quantified on a Packard Top Count, and calculated. % of Basal = (stimulated binding-non specific binding)/(basal binding-non specific binding) × 100. [formula]

[3] = Graded Abdominal Irritant Test (GrAIT); format: in vivo; conditions: for % Inhibition: 30 minutes before kaolin (100 mg/kg intraperitoneally), responses counted for 15 minutes, dose not given; for ED50: log dose regression analysis
Experimental: The Graded Abdominal Irritant Test (GrAIT) is a modification of the methods described by Koster et al. (Koster R., Anderson M and DeBeer E. J. Fed. Proc. 1959, 18, 412). Prior to the test (30 minutes for oral or subcutaneous administration), each animal was administered a known analgesic, a test compound, or vehicle (0.05N HCl) by one of two routes (oral or subcutaneous).
Kaolin (100 mg/kg) was injected intraperitoneally (using a standard 23G needle) at a volume of 10mL/kg of body weight. Following the administration of the chemical agent, the animals were placed in glass bell jars (approximately 15cm in diameter with wood chips on the bottom). […] A contraction of the abdominal musculature and an elongation of the body, which extends through to the hindlimbs, characterize this response. The responses were counted during the 15-minute time period after the injection of the kaolin. A mechanical counter or a personal computer was used to collect the number of counts per animal, and animals were observed no more than 5 at a time.
The mean number of counts (±SEM) for a group of animals receiving a known analgesic or test compound was compared to the mean for the group of animals which received only vehicle pretreatment (Control group). For each dose, % inhibition of the response was calculated. For each test compound, the EDso value was calculated using a log dose regression analysis program (PharmTools software).

[4] = membranes of CHO-K1 cells transfected with human B2 bradykinin receptors, ~0.25 nM [3H]NPC17731, 60 min at 25°C
[5] = number in parentheses, bradykinin-stimulated [35S]GTPγS binding, test concentration not given
[6] = word part of the cell, effect on bradykinin-stimulated [35S]GTPγS binding

SMILES	Ki [1, 4] [nM]	Functional Activity (% Basal) [2, 5] [% Basal]	Functional Activity [2, 6]	% Inhibition ([3]; po)	% Inhibition ([3]; sc) [%]	ED50 ([3]; po) [µmol/kg]	Ki [1] [nM]	Functional Activity [2]	Functional Activity (% Basal) [2]
CC(=O)Nc1ccc(C(=O)c2ccc(CC(=O)N(C)c3ccc(Cl)c(COc4cccc5ccc(C)nc45)c3Cl)n2C)cc1 [Compound 74, 2-[5-(4-Acetylamino-benzoyl)-1-methyl-1 H-pyrrol-2-yl]-N-[2,4-dichloro-3-(2-methyl-quinolin-8-yloxymethyl)-phenyl]-N-methyl-acetamide]	68	33	Antagonist	-6%	88				
Cc1ccc2cccc(OCc3c(C)ccc(N(C)C(=O)Cc4ccc(C(=O)c5ccc(Cl)nc5)n4C)c3C)c2n1 [Compound 77]	306	62	Antagonist	70 po %		80.9			
Cc1ccc2cccc(OCc3c(C)ccc(N(C)C(=O)CCc4ccc(C(=O)c5ccc(C#N)cc5)n4C)c3C)c2n1 [Compound 90]	46	50	Antagonist	45%	100				
Cc1ccc2cccc(OCc3c(C)ccc(N(C)C(=O)Cc4ccc(C(=O)c5ccc(C#N)nc5)n4C)c3C)c2n1 [Compound 78]	286	83	Antagonist	82 po %		114			
CCN(C(=O)Cc1ccc(C(=O)c2ccc(Cl)nc2)n1C)c1ccc(Cl)c(COc2cccc3ccc(C)nc23)c1Cl [Compound 17]	342	1	No effect	-1%	47				
Cc1ccc2cccc(OCc3c(Cl)ccc(N(C)C(=O)CCc4ccc(C(=O)c5ccc(C#N)cc5)n4C)c3Cl)c2n1 [Compound 91]				23%	97.4		15	Antagonist (58)	Antagonist (58) % Basal
Cc1ccc2cccc(OCc3c(Cl)ccc(N(C)C(=O)CCc4ccc(C(=O)c5ccc(Cl)nc5)n4C)c3Cl)c2n1 [Compound 89]	57	51	Antagonist	98po %		22.5			
CCN(C(=O)Cc1ccc(C(=O)c2ccc(C#N)cc2)n1C)c1ccc(C)c(COc2cccc3ccc(C)nc23)c1C [Compound 16]	132	1	No effect	46%	58				
CCn1c(CC(=O)N(C)c2ccc(C)c(COc3cccc4ccc(C)nc34)c2C)ccc1C(=O)c1ccc(C#N)cc1 [Compound 7]	48			26%	42				
Cc1ccc2cccc(OCc3c(Cl)ccc(N(C)C(=O)Cc4ccc(C(=O)c5ccc(C#N)cc5)n4C)c3Cl)c2n1 [Compound 76]	41	79	Antagonist	22%	100				
Cc1ccc2cccc(OCc3c(Cl)ccc(N(C)C(=O)Cc4ccc(C(=O)c5ccncc5)n4C)c3Cl)c2n1 [Compound 60, N-[2,4-Dichloro-3-(2-methyl-quinolin-8-yloxymethyl)-phenyl]-N-methyl-2-[1-methyl-5-(pyridine-4-carbonyl)-1 H-pyrrol-2-yl]-acetamide]	400			44po %					
Cc1ccc2cccc(OCc3c(C)ccc(N(C)C(=O)CCc4ccc(C(=O)c5ccc(Cl)nc5)n4C)c3C)c2n1 [Compound 88]	126	41	Antagonist	-24%	96				
Cc1ccc2cccc(OCc3c(Cl)ccc(N(C)C(=O)Cc4ccc(C(=O)c5ccc(Cl)nc5)n4C)c3Cl)c2n1 [Compound 67, 2-[5-(6-Chloro-pyridine-3-carbonyl)-1-methyl-1H-pyrrol-2-yl]-N-[2,4-dichloro-3-(2-methyl-quinolin-8-yloxymethyl)-phenyl]-N-methyl-acetamide]	194	55	Antagonist	78%	100	68.8			
Cc1ccc2cccc(OCc3c(C)ccc(N(C)C(=O)Cc4ccc(C(=O)c5ccc(C#N)cc5)n4C)c3C)c2n1 [Compound 79, 2-[5-(4-Cyano-benzoyl)-1-methyl-1H-pyrrol-2-yl]-N-[2,4-dimethyl-3-(2-methyl-quinolin-8-yloxymethyl)-phenyl]-N-methyl-acetamide]	69	100	Antagonist	68 po %		61.3			
Cc1ccc2cccc(OCc3c(Cl)ccc(N(C)C(=O)Cc4cc(C(=O)c5ccc(C#N)cc5)n(C)c4)c3Cl)c2n1 [Compound 4, 2-[5-(4-Cyano-benzoyl)-1-methyl-1H-pyrrol-3-yl]-N-[2,4-dichloro-3-(2-methyl-quinolin-8-yloxymethyl)-phenyl]-N-methyl-acetamide]	1350	24	Antagonist						
Cc1ccc2cccc(OCc3c(Cl)ccc(N(C)C(=O)CCc4ccc(C(=O)c5ccncc5)n4C)c3Cl)c2n1 [Compound 83]	168	45	Antagonist						
Cc1ccc2cccc(OCc3c(Cl)ccc(N(C)C(=O)Cc4ccc(C(=O)c5ccc(C#N)cc5)n4CCC(C)C)c3Cl)c2n1 [Compound 13]	44	1	No effect						
Cc1ccc2cccc(OCc3c(Cl)ccc(N(C)C(=O)CCc4ccc(C(=O)c5cccs5)n4C)c3Cl)c2n1 [Compound 81]	304	1	No effect						
